Series [1] relates to Rattus norvegicus. The note with it: oral.
The test system of series [2] is Rattus norvegicus. The note with it: oral, gavage; for LOAEL / NOAEL: Sprague-Dawley.
Where [3] appears, read: subchronic, gavage, M, Sprague-Dawley.
Where [4] appears, read: subchronic, gavage, M, Sprague-Dawley, Clinical Observation: Salivation + Body Weight Changes: Gain increase + Food Consumption: increase + Hematology: Plt increase, Eosinophil% ….
Setting [5] is: subchronic, gavage, M, Sprague-Dawley, Clinical Observation: Excessive salivation Decreased spontaneous locomotors Decreased respiration rate Incomplete eyelid opening + ….
[6] abbreviates: short-term, duration: 28 days, gavage, M, Sprague-Dawley, Clinical Observation: Yellow-orange urine SalivationSpontaneous locomotion decrease, Respiratory rate decrease, Soft stool + Body Weight ….
[7] abbreviates: short-term, duration: 28 days, gavage, F, Sprague-Dawley, Functional Observational Battery: Locomotor activity decrease.
Where [8] appears, read: short-term, duration: 28 days, gavage, M, Sprague-Dawley, Functional Observational Battery: Locomotor activity decrease.
Setting [9] is: reproduction developmental, duration: 4 weeks, M, Rjhan:SD, generation: P0, P0: Whole Body: Clinical Observations.
The mark [10] stands for this setting: reproduction developmental, duration: 4 weeks, M, generation: P0, P0: General Toxicity: Whole Body: Body Weight + P0: General Toxicity: Whole Body: Clinical Observations + P0: General Toxicity: Whole Body: ….
Setting [11] is: reproduction developmental, duration: 6 weeks, F, Rjhan:SD, generation: P0, P0: Whole Body: Clinical Observations.
The mark [12] stands for this setting: reproduction developmental, duration: 54 days, F, generation: P0, P0: General Toxicity: Whole Body: Body Weight + P0: General Toxicity: Whole Body: Clinical Observations + P0: General Toxicity: Whole Body: ….

Each structure is given as a SMILES string. Some results are limits rather than exact numbers.

For orientation: NOAEL means the highest dose or exposure tested at which no adverse effect was seen. By LOAEL is commonly meant the lowest dose or exposure tested at which an adverse effect was seen.

In the case of `O=S(=O)(O)c1cc(Cl)cc(N=Nc2ccc3c(O)cccc3c2O)c1[O-].[Na+]`, the NOEL in series [1] (short-term, duration: 28 days, gavage, M/F, Crl:CD(SD), Deaths + Clinical Observation: Loose stool Locomotor activity increase + Body Weight Changes: decrease + Water Consumption: increase + …) was under 40 mg/kg-day.

As for `COc1cccc(OC)c1C(=O)P(=O)(CC(C)CC(C)(C)C)C(=O)c1c(OC)cccc1OC` (stereo not given), the NOEL in series [1] (short-term, duration: 28 days, gavage, M/F, Blood Chemistry: CHE decrease + Absolute Organ Weight: Liver increase + Histopathology: Skin-Proliferation, epidermis, horny layer Skin-…) came out at 5 mg/kg-day.

Regarding `CC1(C)C(C=CC(=O)OC(C(F)(F)F)C(F)(F)F)C1C(=O)OC(C#N)c1cccc(Oc2ccccc2)c1` (stereo not given), in series [1] (short-term, duration: 28 days, gavage, M/F, Deaths + Clinical Observation: Salivation + Urinalysis: Specific gravity decrease, pH decrease + Blood Chemistry: GPT increase, BUN …), the NOEL was under 5 mg/kg-day.

`COc1c(N2CCNC(C)C2)c(F)cc2c(=O)c(C(=O)O)cn(C3CC3)c12.O` (stereo not given): the NOAEL in series [1] (chronic, duration: 182 days, gavage, M/F, Wistar, Clinical Observation: Loss of increaseper incisor + Body Weight Changes: decrease + Urinalysis: Ca increase + Hematology: SEG decrease, …) stood at 30 mg/kg-day.

As for `CCn1cc(C(=O)O)c(=O)c2cc(F)c(N3CCNCC3)nc21.CCn1cc(C(=O)O)c(=O)c2cc(F)c(N3CCNCC3)nc21.CCn1cc(C(=O)O)c(=O)c2cc(F)c(N3CCNCC3)nc21.O.O`, the NOEL in series [1] (short-term, duration: 28 days, gavage, M/F, Sprague-Dawley, Clinical Observation: Loose stool + Body Weight Changes: Body weight gain decrease + Food Consumption: decrease + Urinalysis: White crystal…) was 120 mg/kg-day.

Turning to `CCOCCc1ccc(OCC(OC)OC)c(C)c1C`, the NOEL in series [1] (short-term, duration: 28 days, gavage, M/F, Clinical Observation: Salivation Locomotor activity decrease + Blood Chemistry: GOT increase, GPT increase, gamma-GTP increase, T-CHO …) was under 40 mg/kg-day.

On to `O=[N+]([O-])c1cc(Cl)c(/N=N/c2ccc3c(c2)c2ccccc2n3CCO)c(Cl)c1`, for which the NOEL in series [1] (short-term, duration: 28 days, gavage, M/F, Body Weight Changes: Body weight gain decrease + Food Consumption: decrease + Water Consumption: increase + Urinalysis: Urine volume …) stood at 140 mg/kg-day.

On to `CCCC[B-](c1ccccc1)(c1ccccc1)c1ccccc1.CCN(CC)c1ccc(C(=C/C=C/C(=C2C=CC(=[N+](CC)CC)C=C2)c2ccc(N(CC)CC)cc2)c2ccc(N(CC)CC)cc2)cc1`, for which the NOEL in series [1] (short-term, duration: 28 days, gavage, M/F, Blood Chemistry: GPT increase, Ch E decrease + Organ Weight: Kidney decrease, Adrenal decrease + Necropsy: Adrenal- Reddish brown + …) was 30 mg/kg-day.

Take `CC(O)C(=O)[O-].[Na+]` (racemic) [Sodium DL-lactate]: in series [1] (subchronic, duration: 42 days, gavage, M, CD(SD), Thyroid Hormone: T4 increase, TSH increase + Histopathology: Stomach-Hyperplasia, squamous, limiting ridge), the NOEL was 100 mg/kg-day.

Consider `O=S(=O)(c1cc(Br)c(OCC(Br)CBr)c(Br)c1)c1cc(Br)c(OCC(Br)CBr)c(Br)c1` (stereo not given) [1,1'-Sulfonylbis[3,5-dibromo-4-(2,3-dibromopropoxy)benzene]], for which, in series [1] (setting [3]), the NOAEL was found to be 1000 mg/kg-day and the NOEL was determined as 1000 mg/kg-day.

On to `CC(C)(O)C(Cl)(Cl)Cl` [1,1,1-Trichloro-2-methyl-2-propanol], for which, in series [1] (subchronic, gavage, M, Sprague-Dawley, Clinical Observation: Staggering gait + Functional Observational Battery: Grip strength decrease, Locomotor activity decrease + Food …), the NOEL was under 10 mg/kg-day.

Regarding `CN(C)CCN(C)CCN(C)C` [1,1,4,7,7-Pentamethyldiethylenetriamine], the NOEL in series [1] (subchronic, gavage, M, Sprague-Dawley, Body Weight Changes: decrease200 + Blood Chemistry: Alb decrease, IP increase + Relative Organ Weight: Liver increase + Histopathology: "…) was determined as 40 mg/kg-day.

Take `c1ccc2n[nH]nc2c1` [1,2,3-Benzotriazole]: the NOEL in series [1] (subchronic, gavage, M, Sprague-Dawley, Blood Chemistry: AST increase, ALT increase, TP decrease, A/G increase, PL increase, K increase) was under 30 mg/kg-day.

As for `Clc1ccccc1NNc1ccccc1Cl` [1,2-Bis(2-chlorophenyl)hydrazine], in series [1] (subchronic, gavage, M, Sprague-Dawley, Body Weight Changes: decrease(trend) + Hematology: Hgb decrease, RET increase(trend) + Blood Chemistry: T-CHO increase(trend) + Relative …), the NOEL came out at 40 mg/kg-day.

For `CC(C)(C)c1cc(C(C)(C)C)cc(C(C)(C)C)c1` [1,3,5-Tri-tert-butylbenzene], in series [1] (setting [4]), the LOAEL came to 50 mg/kg-day, the LOEL stood at 50 mg/kg-day, the NOAEL was determined as 10 mg/kg-day and the NOEL came to 10 mg/kg-day.

In the case of `Nc1ccc(Oc2cccc(Oc3ccc(N)cc3)c2)cc1` [1,3-Phenylenedi(4-aminophenyl ether)], the NOEL in series [1] (short-term, duration: 28 days, gavage, M/F, Deaths + Clinical Observation: Piloerection Abnormal distention Lethargy Loss of hair + Body Weight Changes: Weight gain decrease + Food …) was determined as 10 mg/kg-day.

Turning to `SCC1CSC(CS)CS1` (stereo not given) [1,4-Dithiane-2,5-dimethanethiol], in series [1] (short-term, duration: 28 days, gavage, M/F, Clinical Observation: Salivation Ataxic gait Locomotor activity decrease + Body Weight Changes: Body weight gain decrease + Food Consumption…), the NOEL is 20 mg/kg-day.

Turning to `CC(C)(C)Oc1ccc(Cl)cc1` [1-Chloro-4-tert-butoxybenzene], in series [1] (setting [5]), the NOAEL was found to be 100 mg/kg-day and the NOEL came out at 20 mg/kg-day.

In the case of `CCCCCCCCCCCCCCCCCCCCCCN(C)C` [1-Docosanamine, N,N-dimethyl-], in series [1] (subchronic, gavage, M, Sprague-Dawley, Body Weight Changes: decrease + Blood Chemistry: AST increase, ALT increase, Alb increase, A/G increase, ALP decrease + Necropsy: Mesentric …), the NOEL was determined as 0.5 mg/kg-day.

With `C=COCC(CC)CCCC` (stereo not given) [1-Ethenoxy-2-ethylhexane], in series [1] (short-term, duration: 28 days, gavage, M/F, Sprague-Dawley, Urinalysis: Occult blood increase + Blood Chemistry: ALP increase, Cho increase, PL increase + Relative Organ Weight: Liver increase, …), the NOEL stood at 8 mg/kg-day.

For the compound `COc1ccccc1[N+](=O)[O-]` [1-Methoxy-2-nitrobenzene], in series [1] (setting [6]), the NOAEL worked out at 80 mg/kg-day and the NOEL came out at 80 mg/kg-day. For the same compound, in series [1] (subchronic, duration: 13 weeks, diet, M/F, Fischer 344, Deaths + Body Weight Changes: decrease + Food Consumption: decrease + Hematology: Ret increase, Hct decrease, Hgb decrease, RBC decrease, …), the NOEL was under 19.2 mg/kg-day.

With `C=CCCCCCC` [1-Octene], in series [1] (subchronic, duration: 90 days, gavage, M/F, Urinalysis: Volume increase + Blood Chemistry: Cl decrease, CRE increase + Absolute Organ Weight: Kidney increase + Relative Organ Weight: …), the NOEL came to 50 mg/kg-day.

Consider `O=C1C(Cl)=C(Cl)C(=O)N1Cc1ccccc1` [1-benzyl-3,4-dichloro-1H-pyrrole-2,5-dione], for which the NOEL in series [1] (short-term, duration: 28 days, gavage, M/F, Clinical Observation: Salivation + Body Weight Changes: Body weight gain decrease + Blood Chemistry: TG decrease, GLU decrease + Organ …) came to 40 mg/kg-day.

In the case of `O=C1NC(=O)c2c(Cl)c(Cl)c(Cl)c(Cl)c21` [1H-Isoindole-1,3(2H)-dione, 4,5,6,7-tetrachloro-], the LOEL in series [1] (setting [7]) and in series [1] (setting [8]) was 1000 mg/kg-day throughout. The NOEL in series [1] (setting [7]) and in series [1] (setting [8]) was 300 mg/kg-day each time.

For the compound `CC(C)=CCl` [2,2-Dimethylvinyl chloride], the NOEL in series [1] (subchronic, duration: 13 weeks, gavage, M/F, Fischer 344, Deaths + Clinical Observation: Rough hair Inactivity Perianal wetness + Body Weight Changes: decrease + Histopathology: Liver/periportal-…) was 125 mg/kg-day.

In the case of `O=S(=O)(O)C(F)(F)F` [Trifluoromethanesulfonic acid], the LOAEL in series [2] (developmental, duration: 54 days, M/F, generation: F1, F1: Developmental: Whole Body: Dams with Liveborn Pups + F1: Developmental: Whole Body: Lactation Index + F1: Developmental: Whole Body: …) was 300 mg/kg-day; in series [2] (setting [10]), 300 mg/kg-day; in series [2] (reproduction developmental, duration: 54 days, F, generation: P0, P0: Developmental: Uterus: Implantation + P0: Developmental: Uterus: Post-Implantation Loss + P0: Developmental: Uterus: Pre-Implantation …), 300 mg/kg-day; in series [2] (setting [12]) it was 300 mg/kg-day. Besides, the NEL in series [2] (reproduction developmental, duration: 4 weeks, M, Rjhan:SD, generation: P0, P0: Multi-organ: Histopathology, Unspecified + P0: Multi-organ: Organ Weights, Unspecified + P0: Whole Body: Body Weight, Absolute + P0: …) is 1000 mg/kg-day; in series [2] (setting [9]) it was 100 mg/kg-day; in series [2] (reproduction developmental, duration: 6 weeks, F, Rjhan:SD, generation: P0, P0: Multi-organ: Histopathology, Unspecified + P0: Multi-organ: Organ Weights, Unspecified + P0: Ovary: Corpora Lutea + P0: Uterus: …), 1000 mg/kg-day; in series [2] (setting [11]), 300 mg/kg-day; in series [2] (reproduction developmental, duration: 6 weeks, M/F, Rjhan:SD, generation: F1, F1: Whole Body: Body Weight, Absolute + F1: Whole Body: Clinical Observations + F1: Whole Body: Dams with Liveborn Pups + F1: Whole Body: …), 1000 mg/kg-day; in series [2] (short-term, duration: 28 days, F, Crj:CD, Adrenal: Adrenal Gland Weight, Absolute + Adrenal: Adrenal Gland Weight, Absolute, Recovery + Adrenal: Adrenal Gland Weight, Relative + …), 1000 mg/kg-day. For the same compound, the NEL in series [2] (short-term, duration: 28 days, F, Crj:CD, Blood: Platelet Count (PLT) + Blood: Total Protein (TP), Blood + Forestomach: Boundary Ridge Protrusion + Stomach: Glandular Stomach, …) came to 200 mg/kg-day; in series [2] (short-term, duration: 28 days, M, Crj:CD, Adrenal: Adrenal Gland Weight, Absolute + Adrenal: Adrenal Gland Weight, Absolute, Recovery + Adrenal: Adrenal Gland Weight, Relative + …) it was 1000 mg/kg-day; in series [2] (short-term, duration: 28 days, M, Crj:CD, Forestomach: Boundary Ridge Protrusion), 200 mg/kg-day. For the same compound, the LEL in series [2] (setting [9]) amounted to 300 mg/kg-day; in series [2] (setting [11]) it was 1000 mg/kg-day; in series [2] (short-term, duration: 28 days, F, Crj:CD, Blood: Platelet Count (PLT) + Blood: Total Protein (TP), Blood + Forestomach: Boundary Ridge Protrusion + Kidney: Pyelectasis + Stomach: …), 1000 mg/kg-day; in series [2] (short-term, duration: 28 days, M, Crj:CD, Blood: Albumin/Globulin (A/G) Ratio, Recovery + Blood: Calcium (CA), Recovery, Blood + Blood: Chloride (CL), Recovery, Blood + Forestomach: …), 1000 mg/kg-day. The NOAEL turned out to be 100 mg/kg-day in series [2] (setting [10]); 1000 mg/kg-day in series [2] (reproduction developmental, duration: 4 weeks, M, generation: P0, P0: Whole Body: Whole Body: Histopathology, Unspecified); 100 mg/kg-day in series [2] (setting [12]).

Source of the values: EPA's ToxValDB 9.5.
